# Data taken from ChEMBL document CHEMBL1154025, “Design and synthesis of BACE-1 inhibitors utilizing a tertiary hydroxyl motif as the transition state mimic” (Bioorg Med Chem Lett, 2009).
# Target: Beta-secretase 1 (Homo sapiens, UniProt P56817)
# Assay: Inhibition of human BACE1 expressed in Escherichia coli BL21(DE3) using Swedish mutant sequence Eu-EVNLDAEFK-Quencher substrate by homogeneous time resolved fluorescence assay
# Sequence of Beta-secretase 1 (P56817 whole entry): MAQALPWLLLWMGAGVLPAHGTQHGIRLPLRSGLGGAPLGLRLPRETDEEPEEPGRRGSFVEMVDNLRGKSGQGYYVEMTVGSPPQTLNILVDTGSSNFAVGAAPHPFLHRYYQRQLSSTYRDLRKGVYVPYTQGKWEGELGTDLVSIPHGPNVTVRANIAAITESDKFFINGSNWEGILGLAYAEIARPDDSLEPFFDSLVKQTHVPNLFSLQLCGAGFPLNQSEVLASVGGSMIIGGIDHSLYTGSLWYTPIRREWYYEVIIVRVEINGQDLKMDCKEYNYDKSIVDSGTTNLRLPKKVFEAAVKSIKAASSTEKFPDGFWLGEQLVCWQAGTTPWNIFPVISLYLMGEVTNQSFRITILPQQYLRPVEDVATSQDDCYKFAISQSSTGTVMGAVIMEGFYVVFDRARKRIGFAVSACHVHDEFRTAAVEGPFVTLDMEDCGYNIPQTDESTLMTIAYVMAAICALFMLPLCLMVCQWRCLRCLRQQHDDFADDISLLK
row,IC50 [µM],Structure (SMILES)
1,> 10,CC(C)[C@H](NC(=O)CCC(O)(CCc1ccccc1)C(=O)Nc1cc(C(=O)N[C@H](C)c2ccc(F)cc2)cc(N(C)S(C)(=O)=O)c1)C(=O)NCc1ccccc1 (some centres undefined)
2,2.5,C[C@@H](NC(=O)c1cc(NC(=O)CC[C@](O)(Cc2ccccc2)C(=O)N[C@H]2c3ccccc3C[C@H]2O)cc(N(C)S(C)(=O)=O)c1)c1ccccc1
3,> 10,CC(C)[C@H](NC(=O)CCC(O)(Cc1ccccc1)C(=O)Nc1cc(C(=O)N[C@H](C)c2ccc(F)cc2)cc(N(C)S(C)(=O)=O)c1)C(=O)NCc1ccc(C(=O)O)cc1 (some centres undefined)
4,4.6,C[C@@H](NC(=O)c1cc(NC(=O)CC[C@@](O)(Cc2ccccc2)C(=O)N[C@H]2c3ccccc3C[C@H]2O)cc(N(C)S(C)(=O)=O)c1)c1ccccc1
5,0.45,CC(C)[C@H](NC(=O)C(O)(CCC(=O)Nc1cc(C(=O)N[C@H](C)c2ccccc2)cc(N(C)S(C)(=O)=O)c1)CCc1ccccc1)C(=O)NCc1ccccc1 (some centres undefined)
6,> 10,CC(C)[C@H](NC(=O)CCC(O)(Cc1ccccc1)C(=O)Nc1cc(C(=O)N[C@H](C)c2ccc(F)cc2)cc(N(C)S(C)(=O)=O)c1)C(=O)Nc1ccc(C(=O)O)cc1 (some centres undefined)
7,5.9,CC(C)[C@H](NC(=O)CCC(O)(Cc1ccccc1)C(=O)Nc1cc(C(=O)N[C@H](C)c2ccc(F)cc2)cc(N(C)S(C)(=O)=O)c1)C(=O)NCc1ccccc1 (some centres undefined)
8,4,COC(=O)c1ccc(NC(=O)[C@@H](NC(=O)CCC(O)(Cc2ccccc2)C(=O)Nc2cc(C(=O)N[C@H](C)c3ccc(F)cc3)cc(N(C)S(C)(=O)=O)c2)C(C)C)cc1 (some centres undefined)
9,> 10,COC(=O)c1ccc(CNC(=O)[C@@H](NC(=O)CCC(O)(Cc2ccccc2)C(=O)Nc2cc(C(=O)N[C@H](C)c3ccc(F)cc3)cc(N(C)S(C)(=O)=O)c2)C(C)C)cc1 (some centres undefined)
10,5.6,CC(C)[C@H](NC(=O)CCC(O)(CCc1ccccc1)C(=O)Nc1cc(C(=O)N[C@H](C)c2ccccc2)cc(N(C)S(C)(=O)=O)c1)C(=O)NCc1ccccc1 (some centres undefined)
11,> 10,C[C@@H](NC(=O)c1cc(NC(=O)C(O)(CCC(=O)N[C@H]2c3ccccc3C[C@H]2O)Cc2ccccc2)cc(N(C)S(C)(=O)=O)c1)c1ccc(F)cc1 (some centres undefined)
12,0.32,"CC(C)[C@H](NC(=O)C(O)(CCC(=O)Nc1cc(C(=O)N[C@H](C)c2ccccc2)cc(N(C)S(C)(=O)=O)c1)CCc1ccccc1)C(=O)Nc1ccccc1 (single isomer, unassigned)"
13,0.57,C[C@@H](NC(=O)c1cc(NC(=O)CCC(O)(CCc2ccccc2)C(=O)N[C@H]2c3ccccc3C[C@H]2O)cc(N(C)S(C)(=O)=O)c1)c1ccccc1 (stereo in doubt; 36-(A))
14,0.25,C[C@@H](NC(=O)c1cc(NC(=O)CCC(O)(CCc2ccccc2)C(=O)N[C@H]2c3ccccc3C[C@H]2O)cc(N(C)S(C)(=O)=O)c1)c1ccccc1 (stereo in doubt; 37-(B))
15,0.23,CC(C)[C@H](NC(=O)C(O)(CCC(=O)Nc1cc(C(=O)N[C@H](C)c2ccccc2)cc(N(C)S(C)(=O)=O)c1)CCc1ccccc1)C(=O)Nc1ccccc1 (stereo in doubt; 39-(A))

# Target: Cathepsin D (Homo sapiens, UniProt P07339)
# Sequence (P07339 65-162 limits assumed): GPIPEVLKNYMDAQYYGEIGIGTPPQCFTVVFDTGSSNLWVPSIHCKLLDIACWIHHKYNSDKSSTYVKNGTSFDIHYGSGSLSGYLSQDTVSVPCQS
# Sequence (P07339 169-412 limits assumed): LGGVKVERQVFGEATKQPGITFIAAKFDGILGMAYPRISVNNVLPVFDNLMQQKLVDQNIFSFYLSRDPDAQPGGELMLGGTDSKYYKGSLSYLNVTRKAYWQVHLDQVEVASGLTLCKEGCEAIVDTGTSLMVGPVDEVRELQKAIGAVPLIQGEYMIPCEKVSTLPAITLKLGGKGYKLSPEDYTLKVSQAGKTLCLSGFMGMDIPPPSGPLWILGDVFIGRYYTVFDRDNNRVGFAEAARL
# Assay: Inhibition of human liver cathepsin D
row,Ki [µM],Structure (SMILES)
1,> 5,C[C@@H](NC(=O)c1cc(NC(=O)CCC(O)(CCc2ccccc2)C(=O)N[C@H]2c3ccccc3C[C@H]2O)cc(N(C)S(C)(=O)=O)c1)c1ccccc1 (stereo in doubt; 37-(B))
2,> 5,CC(C)[C@H](NC(=O)C(O)(CCC(=O)Nc1cc(C(=O)N[C@H](C)c2ccccc2)cc(N(C)S(C)(=O)=O)c1)CCc1ccccc1)C(=O)Nc1ccccc1 (stereo in doubt; 39-(A))

# Test system: not listed separately
# Assay: Permeability across human Caco-2 cell membrane
# Type: ADME, cell-based
row,Papp [×10⁻⁶ cm/s],Structure (SMILES)
1,< 1,C[C@@H](NC(=O)c1cc(NC(=O)CCC(O)(CCc2ccccc2)C(=O)N[C@H]2c3ccccc3C[C@H]2O)cc(N(C)S(C)(=O)=O)c1)c1ccccc1 (stereo in doubt; 37-(B))
2,1.2,CC(C)[C@H](NC(=O)C(O)(CCC(=O)Nc1cc(C(=O)N[C@H](C)c2ccccc2)cc(N(C)S(C)(=O)=O)c1)CCc1ccccc1)C(=O)Nc1ccccc1 (stereo in doubt; 39-(A))
